Data: US10774102B2, “Galactoside inhibitor of galectins” (Galecto Biotech AB, priority 2015, dated 2020)
pKd: −log10 of the molar value.

How the values were obtained:
[1] = system: galectins; details: cited from earlier work
[2] = molecular target: galectin-3 (Homo sapiens (Human), UniProt P17931); test: Fluorescence anisotropy assay of galectin-3 affinity (compound inhibits galectin binding to a fluorescein tagged saccharide probe); details: high affinity probe, 50 nM galectin-3, 100 nM albumin
Procedure: 100 nM albumin was included as a carrier to prevent protein loss at such low concentration of galectin.

[3] = Pharmacokinetic studies in mice; details: mouse, in vivo
Text: This is exemplified by Example 9 3,4-Dichlorophenyl 3-deoxy-3-[4-(3,4,5-trifluorophenyl)-1H-1,2,3-triazol-1-yl]-1-thio-α-D-galactopyranoside in the table below.

Chain of galectin-3 (P17931 whole entry): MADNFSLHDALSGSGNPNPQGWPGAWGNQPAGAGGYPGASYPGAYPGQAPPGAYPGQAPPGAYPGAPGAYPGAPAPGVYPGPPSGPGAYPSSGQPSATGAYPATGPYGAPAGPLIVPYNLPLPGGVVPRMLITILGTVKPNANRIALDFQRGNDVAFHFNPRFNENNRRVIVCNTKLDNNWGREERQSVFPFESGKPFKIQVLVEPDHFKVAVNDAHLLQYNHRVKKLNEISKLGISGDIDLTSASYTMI

Structure (SMILES)	pKd [2]	further results
O=C[C@H](O)[C@@H](O)[C@@H](O)[C@H](O)CO [D-galactose, D-(+)-galactose]		affinity relative to lactose (times lower) ([1]; galectins, compared with lactose): 50-100 times lower
OC[C@H]1O[C@@H](O[C@H]2[C@H](O)[C@@H](O)C(O)O[C@@H]2CO)[C@H](O)[C@@H](O)[C@H]1O (stereo partly drawn) [lactose]		pKd ([1]; all galectins): 3.00 to 3.30
OC[C@H]1O[C@H](Sc2ccccc2)[C@H](O)[C@@H](n2cc(-c3cc(F)c(F)c(F)c3)nn2)[C@H]1O [Example 27, Phenyl 3-deoxy-3-[4-(3,4,5-trifluorophenyl)-1H-1,2,3-triazol-1-yl]-1-thio-α-D-galactopyranoside]	6.40	
OC[C@H]1O[C@H](Sc2ccc(Cl)c(Cl)c2)[C@H](O)[C@@H](n2cc(-c3cc(F)c(F)c(F)c3)nn2)[C@H]1O [Example 9, 3,4-Dichlorophenyl 3-deoxy-3-[4-(3,4,5-trifluorophenyl)-1H-1,2,3-triazol-1-yl]-1-thio-α-D-galactopyranoside]		bioavailability ([3]; 10 mg/kg, oral, read-out: Bioavailability (F)): 75%; Cmax ([3]; po, 10 mg/kg): 16 µM; clearance ([3]; read-out: Clearance (CL)): 1.2 mL/min/kg; half-life ([3]; read-out: Halflife (t½) (converted)): 4.5 h
OC[C@H]1O[C@H](Sc2cccc(Cl)c2)[C@H](O)[C@@H](n2cc(-c3cc(F)c(F)c(F)c3)nn2)[C@H]1O [Example 19, 3-Chlorophenyl 3-deoxy-3-[4-(3,4,5-trifluorophenyl)-1H-1,2,3-triazol-1-yl]-1-thio-α-D-galactopyranoside]	7.31	
OC[C@H]1O[C@H](Sc2cc(Cl)cc(Cl)c2)[C@H](O)[C@@H](n2cc(-c3cc(F)c(F)c(F)c3)nn2)[C@H]1O [Example 16, 3,5-Dichlorophenyl 3-deoxy-3-[4-(3,4,5-trifluorophenyl)-1H-1,2,3-triazol-1-yl]-1-thio-α-D-galactopyranoside]	7.10	
[O-][S+](c1cccc(Br)c1)[C@H]1O[C@H](CO)[C@H](O)[C@H](n2cc(-c3cc(F)c(F)c(F)c3)nn2)[C@H]1O (stereo partly drawn) [Example 39, 3-Bromophenyl 3-deoxy-3-[4-(3,4,5-trifluorophenyl)-1H-1,2,3-triazol-1-yl]-α-D-galactopyranosyl sulfoxide]	7.64	
OC[C@H]1O[C@H](Sc2ccc(Cl)cc2Cl)[C@H](O)[C@@H](n2cc(-c3cc(F)c(F)c(F)c3)nn2)[C@H]1O [Example 5, 2,4-Dichlorophenyl 3-deoxy-3-[4-(3,4,5-trifluorophenyl)-1H-1,2,3-triazol-1-yl]-1-thio-α-D-galactopyranoside]	6.19	
OCC1O[C@H](Sc2cccc3ccccc23)C(O)[C@@H](n2cc(-c3cc(F)c(F)c(F)c3)nn2)[C@H]1O (stereo partly drawn) [Example 18, 1-Naphthyl 3-deoxy-1-thio-3-[4-(3,4,5-trifluorophenyl)-1H-1,2,3-triazol-1-yl]-1-thio-α-D-galactopyranoside]	6.02	
COc1ccc(Cl)cc1S[C@H]1OC(CO)[C@H](O)[C@H](n2cc(-c3cc(F)c(F)c(F)c3)nn2)C1O (stereo partly drawn) [Example 65, 5-Chloro-2-methoxyphenyl 3-deoxy-1-thio-3-[4-(3,4,5-trifluorophenyl)-1H-1,2,3-triazol-1-yl]-α-D-galactopyranoside]	7.08	
CCCC(=O)c1cn([C@@H]2[C@@H](O)[C@@H](Sc3ccc(Cl)c(Cl)c3)O[C@H](CO)[C@@H]2O)nn1 [Example 102, 3,4-Dichlorophenyl 3-deoxy-3-[4-(propyl-carbonyl)-1H-1,2,3-triazol-1-yl]-1-thio-α-D-galactopyranoside]	6.00	
[O-][S+](c1ccc(Cl)cc1)[C@H]1O[C@H](CO)[C@H](O)[C@H](n2cc(-c3cc(F)c(F)c(F)c3)nn2)[C@H]1O (stereo partly drawn) [Example 26, 4-Chlorophenyl 3-deoxy-3-[4-(3,4,5-trifluorophenyl)-1H-1,2,3-triazol-1-yl]-α-D-galactopyranosyl sulfoxide]	6.11	
